System: JR251 or RBL cells
Assay: Store-operated calcium entry, either JR251 or RBL cells, or both
Format: cell-based
Procedure, shortened: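 Orai1/STIM1 stable cells: fluo-4-AM loaded, compound 30 min at RT in Ca2+-free HBSS, then CaCl2 added; IC50 from Peak-Basal FLIPR fluorescence. RBL-2H3 cells: compound 5 min, then thapsigargin (5.5× stock, 5.5 uM) 25 min, then calcium added; IC50 from Upslope (signal 7 s after calcium minus baseline).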

## O=C(CCc1ccco1)Nc1scc(-c2ccc(Br)cc2)c1C(=O)O [4-(4-bromophenyl)-2-(3-(furan-2-yl)propanamido)thiophene-3-carboxylic acid]
  IC50: < 10 µM

## O=C(CCc1cccs1)Nc1scc(-c2ccc(Br)cc2)c1C(=O)O [4-(4-bromophenyl)-2-(3-(thiophen-2-yl)propanamido)thiophene-3-carboxylic acid]
  IC50: < 10 µM

## COC1CCCC(C(=O)Nc2scc(-c3ccc(Br)cc3)c2C(=O)O)C1 (centres unmarked) [4-(4-bromophenyl)-2-(3-methoxycyclohexanecarboxamido)thiophene-3-carboxylic acid]
  IC50: < 10 µM

## Cc1ccsc1C(=O)Nc1scc(-c2ccc(Br)cc2)c1C(=O)O [4-(4-bromophenyl)-2-(3-methylthiophene-2-carboxamido)thiophene-3-carboxylic acid]
  IC50: < 10 µM

## O=C(O)c1c(-c2ccc(Br)cc2)csc1Nc1nc(-c2ccccc2)no1 [4-(4-bromophenyl)-2-(3-phenyl-1,2,4-oxadiazol-5-ylamino)thiophene-3-carboxylic acid]
  IC50: < 10 µM

## O=C(CCc1ccccc1)Nc1scc(-c2ccc(Br)cc2)c1C(=O)O [4-(4-bromophenyl)-2-(3-phenylpropanamido)thiophene-3-carboxylic acid]
  IC50: < 10 µM

## Cc1c(S(=O)(=O)c2ccc(Cl)cc2)csc1C(=O)Nc1scc(-c2ccc(Br)cc2)c1C(=O)O [4-(4-bromophenyl)-2-(4-(4-chlorophenylsulfonyl)-3-methylthiophene-2-carboxamido)thiophene-3-carboxylic acid]
  IC50: < 10 µM

## O=C(Nc1scc(-c2ccc(Br)cc2)c1C(=O)O)c1nc2c(F)cccc2o1 [4-(4-bromophenyl)-2-(4-fluorobenzo[d]oxazole-2-carboxamido)thiophene-3-carboxylic acid]
  IC50: < 10 µM

## O=C(Nc1scc(-c2ccc(Br)cc2)c1C(=O)O)c1cc2c(F)cccn2n1 [4-(4-bromophenyl)-2-(4-fluoropyrazolo[1,5-a]pyridine-2-carboxamido)thiophene-3-carboxylic acid]
  IC50: < 10 µM

## Cc1nnsc1C(=O)Nc1scc(-c2ccc(Br)cc2)c1C(=O)O [4-(4-bromophenyl)-2-(4-methyl-1,2,3-thiadiazole-5-carboxamido)thiophene-3-carboxylic acid]
  IC50: < 10 µM

## O=C(Nc1scc(-c2ccc(Br)cc2)c1C(=O)O)c1cc2occc2[nH]1 [4-(4-bromophenyl)-2-(4H-furo[3,2-b]pyrrole-5-carboxamido)thiophene-3-carboxylic acid]
  IC50: < 10 µM

## O=C(Nc1scc(-c2ccc(Br)cc2)c1C(=O)O)c1cc2sccc2[nH]1 [4-(4-bromophenyl)-2-(4H-thieno[3,2-b]pyrrole-5-carboxamido)thiophene-3-carboxylic acid]
  IC50: < 10 µM

## Cn1ncc(C(=O)Nc2scc(-c3ccc(Br)cc3)c2C(=O)O)c1Cl [4-(4-bromophenyl)-2-(5-chloro-1-methyl-1H-pyrazole-4-carboxamido)thiophene-3-carboxylic acid]
  IC50: < 10 µM

## O=C(O)c1c(-c2ccc(Br)cc2)csc1NC(=O)C1Cc2cc(Cl)ccc2O1 (centres unmarked) [4-(4-bromophenyl)-2-(5-chloro-2,3-dihydrobenzofuran-2-carboxamido)thiophene-3-carboxylic acid]
  IC50: < 10 µM

## O=C(Nc1scc(-c2ccc(Br)cc2)c1C(=O)O)c1nc2cc(Cl)ccc2o1 [4-(4-bromophenyl)-2-(5-chlorobenzo[d]oxazole-2-carboxamido)thiophene-3-carboxylic acid]
  IC50: < 10 µM

## O=C(Nc1scc(-c2ccc(Br)cc2)c1C(=O)O)c1ccc(-c2ccccc2)s1 [4-(4-bromophenyl)-2-(5-phenylthiophene-2-carboxamido)thiophene-3-carboxylic acid]
  IC50: < 10 µM

## O=C(Nc1scc(-c2ccc(Br)cc2)c1C(=O)O)c1ccc(C(F)(F)F)nc1 [4-(4-bromophenyl)-2-(6-(trifluoromethyl)nicotinamido)thiophene-3-carboxylic acid]
  IC50: < 10 µM

## O=C(Nc1scc(-c2ccc(Br)cc2)c1C(=O)O)c1cccc(F)n1 [4-(4-bromophenyl)-2-(6-fluoropicolinamido)thiophene-3-carboxylic acid]
  IC50: < 10 µM

## COc1cccc(C(=O)Nc2scc(-c3ccc(Br)cc3)c2C(=O)O)n1 [4-(4-bromophenyl)-2-(6-methoxypicolinamido)thiophene-3-carboxylic acid]
  IC50: < 10 µM

## Cc1ccc(C(=O)Nc2scc(-c3ccc(Br)cc3)c2C(=O)O)cn1 [4-(4-bromophenyl)-2-(6-methylnicotinamido)thiophene-3-carboxylic acid]
  IC50: < 10 µM

## N#Cc1cccc2nc(C(=O)Nc3scc(-c4ccc(Br)cc4)c3C(=O)O)oc12 [4-(4-bromophenyl)-2-(7-cyanobenzo[d]oxazole-2-carboxamido)thiophene-3-carboxylic acid]
  IC50: < 10 µM

## O=C(Nc1scc(-c2ccc(Br)cc2)c1C(=O)O)c1nc2cccc(F)c2o1 [4-(4-bromophenyl)-2-(7-fluorobenzo[d]oxazole-2-carboxamido)thiophene-3-carboxylic acid]
  IC50: < 10 µM

## COc1cccc2c1CC(C(=O)Nc1scc(-c3ccc(Br)cc3)c1C(=O)O)CC2 (centres unmarked) [4-(4-bromophenyl)-2-(8-methoxy-1,2,3,4-tetrahydronaphthalene-2-carboxamido)thiophene-3-carboxylic acid]
  IC50: < 10 µM

## O=C(Nc1scc(-c2ccc(Br)cc2)c1C(=O)O)OCc1ccccc1Cl [4-(4-bromophenyl)-2-((2-chlorobenzyloxy)carbonylamino)thiophene-3-carboxylic acid]
  IC50: < 10 µM

## O=C(O)c1c(-c2ccc(Br)cc2)csc1NC(=O)C1COc2ccccc2C1 (centres unmarked) [4-(4-bromophenyl)-2-(chroman-3-carboxamido)thiophene-3-carboxylic acid]
  IC50: < 10 µM

## O=C(Nc1scc(-c2ccc(Br)cc2)c1C(=O)O)c1ccco1 [4-(4-bromophenyl)-2-(furan-2-carboxamido)thiophene-3-carboxylic acid]
  IC50: < 10 µM

## O=C(Nc1scc(-c2ccc(Br)cc2)c1C(=O)O)c1cn2ccccc2n1 [4-(4-bromophenyl)-2-(imidazo[1,2-a]pyridine-2-carboxamido)thiophene-3-carboxylic acid]
  IC50: < 10 µM

## O=C(O)c1c(-c2ccc(Br)cc2)csc1NC(=O)N1Cc2ccccc2C1 [4-(4-bromophenyl)-2-(isoindoline-2-carboxamido)thiophene-3-carboxylic acid]
  IC50: < 10 µM

## O=C(Nc1scc(-c2ccc(Br)cc2)c1C(=O)O)c1ccncc1 [4-(4-bromophenyl)-2-(isonicotinamido)thiophene-3-carboxylic acid]
  IC50: < 10 µM

## O=C(Nc1scc(-c2ccc(Br)cc2)c1C(=O)O)c1cccnc1 [4-(4-bromophenyl)-2-(nicotinamido)thiophene-3-carboxylic acid]
  IC50: < 10 µM

## O=C(Nc1scc(-c2ccc(Br)cc2)c1C(=O)O)c1cnccn1 [4-(4-bromophenyl)-2-(pyrazine-2-carboxamido)thiophene-3-carboxylic acid]
  IC50: < 10 µM

## O=C(Nc1scc(-c2ccc(Br)cc2)c1C(=O)O)c1cc2ccccn2n1 [4-(4-bromophenyl)-2-(pyrazolo[1,5-a]pyridine-2-carboxamido)thiophene-3-carboxylic acid]
  IC50: < 10 µM

## O=C(Nc1scc(-c2ccc(Br)cc2)c1C(=O)O)c1ccnnc1 [4-(4-bromophenyl)-2-(pyridazine-4-carboxamido)thiophene-3-carboxylic acid]
  IC50: < 10 µM

## O=C(Nc1scc(-c2ccc(Br)cc2)c1C(=O)O)c1ccc2ccccc2n1 [4-(4-bromophenyl)-2-(quinoline-2-carboxamido)thiophene-3-carboxylic acid]
  IC50: < 10 µM

## O=C(Nc1scc(-c2ccc(Br)cc2)c1C(=O)O)c1cnc2ccccc2n1 [4-(4-bromophenyl)-2-(quinoxaline-2-carboxamido)thiophene-3-carboxylic acid]
  IC50: < 10 µM

## O=C(CCc1ccccc1)Nc1scc(-c2ccc(Cl)cc2F)c1C(=O)O [4-(4-chloro-2-fluorophenyl)-2-(3-phenylpropanamido)thiophene-3-carboxylic acid]
  IC50: < 10 µM

## O=C(Nc1scc(-c2ccc(Cl)cc2F)c1C(=O)O)c1nc2cccc(F)c2s1 [4-(4-chloro-2-fluorophenyl)-2-(7-fluorobenzo[d]thiazole-2-carboxamido)thiophene-3-carboxylic acid]
  IC50: < 10 µM

## O=C(Nc1scc(-c2ccc(Cl)c(F)c2)c1C(=O)O)c1nc2c(F)cccc2o1 [4-(4-chloro-3-fluorophenyl)-2-(4-fluorobenzo[d]oxazole-2-carboxamido)thiophene-3-carboxylic acid]
  IC50: < 10 µM

## O=C(Nc1scc(-c2ccc(Cl)c(F)c2)c1C(=O)O)c1nc2cccc(F)c2o1 [4-(4-chloro-3-fluorophenyl)-2-(7-fluorobenzo[d]oxazole-2-carboxamido)thiophene-3-carboxylic acid]
  IC50: < 10 µM

## O=C(O)c1c(-c2ccc(Cl)cc2)csc1NC(=O)C1CCc2ccccc2C1 (centres unmarked) [4-(4-chlorophenyl)-2-(1,2,3,4-tetrahydronaphthalene-2-carboxamido)thiophene-3-carboxylic acid]
  IC50: < 10 µM

## O=C(O)c1c(-c2ccc(Cl)cc2)csc1NC(=O)C1Cc2ccccc21 (centres unmarked) [4-(4-chlorophenyl)-2-(1,2-dihydrocyclobutabenzene-1-carboxamido)thiophene-3-carboxylic acid]
  IC50: < 10 µM

## Cc1nn(C)c2sc(C(=O)Nc3scc(-c4ccc(Cl)cc4)c3C(=O)O)cc12 [4-(4-chlorophenyl)-2-(1,3-dimethyl-1H-thieno[2,3-c]pyrazole-5-carboxamido)thiophene-3-carboxylic acid]
  IC50: < 10 µM

## O=C(O)c1c(-c2ccc(Cl)cc2)csc1NC(=O)C1(c2ccc(Cl)cc2)CC1 [4-(4-chlorophenyl)-2-(1-(4-chlorophenyl)cyclopropanecarboxamido)thiophene-3-carboxylic acid]
  IC50: < 10 µM

## Cn1cnc(C(=O)Nc2scc(-c3ccc(Cl)cc3)c2C(=O)O)c1 [4-(4-chlorophenyl)-2-(1-methyl-1H-imidazole-4-carboxamido)thiophene-3-carboxylic acid]
  IC50: < 10 µM
